The inhibition is the drop in the measured response relative to a control, in per cent. A higher inhibition goes with strong suppression.

Molecules are shown by their SMILES. Where a name gives a salt, the structure may show the parent alone.

T1 sequence (P23975 whole entry): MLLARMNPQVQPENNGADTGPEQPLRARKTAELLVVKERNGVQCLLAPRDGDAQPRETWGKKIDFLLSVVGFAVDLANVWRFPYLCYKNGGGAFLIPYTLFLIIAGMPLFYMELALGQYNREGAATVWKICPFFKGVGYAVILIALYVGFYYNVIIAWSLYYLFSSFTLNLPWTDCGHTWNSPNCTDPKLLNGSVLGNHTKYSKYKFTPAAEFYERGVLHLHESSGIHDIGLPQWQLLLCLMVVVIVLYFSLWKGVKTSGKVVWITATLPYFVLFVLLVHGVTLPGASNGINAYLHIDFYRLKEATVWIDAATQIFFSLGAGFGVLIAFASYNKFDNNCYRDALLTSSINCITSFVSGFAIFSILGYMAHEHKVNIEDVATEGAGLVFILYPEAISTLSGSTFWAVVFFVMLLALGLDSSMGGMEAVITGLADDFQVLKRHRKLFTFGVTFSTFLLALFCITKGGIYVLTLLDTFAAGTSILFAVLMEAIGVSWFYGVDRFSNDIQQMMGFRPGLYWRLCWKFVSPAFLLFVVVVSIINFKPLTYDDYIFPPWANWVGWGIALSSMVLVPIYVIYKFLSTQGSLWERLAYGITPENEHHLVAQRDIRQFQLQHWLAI

One experiment addresses T1, human hNET (Homo sapiens, UniProt P23975).
T1 construct: expressed in transfected cells; host or cells: MDCK-Net6 (MDCK cells stably transfected with hNET)
Briefly: Norepinephrine (NE) uptake assay in MDCK-Net6 cells. Type of experiment: cell-based. The following applies: 1 μM test compound, [3H]NE uptake. Here is the method: MDCK-Net6 cells, stably transfected with human hNET (Pacholczyk, T., R. D. Blakely, and S. G. Amara, Nature, 1991, 350(6316): p. 350-4) were cultured in growth medium containing high glucose DMEM (Gibco, Cat. No. 11995), 10% FBS (dialyzed, heat-inactivated, US Bio-Technologies, Lot FBD1129HI) and 500 μg/ml G418 (Gibco, Cat. No. 10131). Cells were plated at 300,000/T75 flask and cells were split twice weekly. The JAR cell line (human placental choriocarcinoma) was purchased from ATCC (Cat. No. HTB-144). The cells were cultured in growth medium containing RPMI 1640 (Gibco, Cat. No. 72400), 10% FBS (Irvine, Cat. No. 3000), 1% sodium pyruvate (Gibco, Cat. No. 1136) and 0.25% glucose. Cells were plated at 250,000 cells/T75 flask and split twice weekly. For all assays, cells were plated in Wallac 96-well sterile plates (PerkinEimer, Cat. No. 3983498).
On day 1, cells were plated at 3,000 cells/well in growth medium and maintained in a cell incubator (37° C., 5% CO2). On day 2, growth medium was replaced with 200 μl of assay buffer (25 mM HEPES; 120 mM NaCl; 5 mM KCl; 2.5 mM CaCl2; 1.2 mM MgSO4; 2 mg/ml glucose (pH 7.4, 37° C.)) containing 0.2 mg/ml ascorbic acid and 10 μM pargyline. Plates containing cells with 200 μl of assay buffer were equilibrated for 10 minutes at 37° C. prior to addition of compounds. A stock solution of desipramine was prepared in DMSO (10 mM) and delivered to triplicate wells containing cells for a final test concentration of 1 μM. Data from these wells were used to define non-specific NE uptake (minimum NE uptake). Test compounds were prepared in DMSO (10 mM) and diluted in assay buffer according to test range (1 to 10,000 nM). Twenty-five microliters of assay buffer (maximum NE uptake) or test compound were added directly to triplicate wells containing cells in 200 μl of assay buffer. The cells in assay buffer with test compounds were incubated for 20 minutes at 37° C. To initiate the NE uptake, [^3H]NE diluted in assay buffer (120 nM final assay concentration) was delivered in 25 μl aliquots to each well and the plates were incubated for 5 minutes (37° C.). The reaction was terminated by decanting the supernatant from the plate. The plates containing cells were washed twice with 200 μl assay buffer (37° C.) to remove free radioligand. The plates were then inverted, left to dry for 2 minutes, then reinverted and air-dried for an additional 10 minutes. The cells were lysed in 25 μl of 0.25 N NaOH solution (4° C.), placed on a shake table and vigorously shaken for 5 minutes. After cell lysis, 75 μl of scintillation cocktail was added to each well and the plates were sealed with film tape. The plates were returned to the shake table and vigorously shaken for a minimum of 10 minutes to ensure adequate partitioning of organic and aqueous solutions. The plates were counted in a Wallac Microbeta counter (PerkinEimer) to collect the raw cpm data.
For each experiment, a data stream of cpm values collected from the Wallac Microbeta counter was downloaded to a Microsoft Excel statistical application program. Calculations of EC50 values were made using the transformed-both-sides logistic dose responses program written by Wyeth Biometrics Department. The statistical program uses mean cpm values from wells representing maximum binding or uptake (assay buffer) and mean cpm values from wells representing minimum binding or uptake ((1 μM desipramine (hNET) or 1 μM paroxetine (hSERT)). Estimation of the EC50 value was completed on a log scale and the line was fit between the maximum and minimum binding or uptake values. All graphic data representation was generated by normalizing each data point to a mean percent based on the maximum and minimum binding or uptake values. The EC50 values reported from multiple experiments were calculated by pooling the raw data from each experiment and analyzing the pooled data as one experiment.
`OC1(C(CNCc2ccccc2)c2ccc3ccccc3c2)CCCCC1` (stereo not drawn) [Example 62, 1-[2-(benzylamino)-1-(2-naphthyl)ethyl]cyclohexanol hydrochloride] registered an inhibition at 1 µM of 30%. On the same count and under the same terms, the figure for `OC1(C(CNC2CCCCC2)c2cccc(Cl)c2)CCCCC1` (stereo not drawn) [Example 67, 1-[1-(3-chlorophenyl)-2-(cyclohexylamino)ethyl]cyclohexanol hydrochloride] is 26%; for `OC1(C(CNCc2ccc(C(F)(F)F)cc2)c2ccc(Cl)c(Cl)c2)CCCCC1` (stereo not drawn) [Example 75, 1-(1-(3,4-dichlorophenyl)-2-{[4-(trifluoromethyl)benzyl]amino}ethyl)cyclohexanol hydrochloride] it is 22%; for `OC1(C(CNCc2ccc(F)cc2)c2ccc(Cl)c(Cl)c2)CCCCC1` (stereo not drawn) [Example 80, 1-{1-(3,4-dichlorophenyl)-2-[(4-fluorobenzyl)amino]ethyl}cyclohexanol hydrochloride] it is 20%. Same read-out and setting: next, `OC1(C(CN2CCOCC2)c2ccc(Cl)c(Cl)c2)CCC1` (stereo not drawn) [Example 83, 1-[1-(3,4-dichlorophenyl)-2-morpholin-4-ylethyl]cyclobutanol hydrochloride]: 19%; `OC1(C(CN2CCCCC2)c2cccc(Cl)c2)CCCCC1` (stereo not drawn) [Example 85, 1-[1-(3-chlorophenyl)-2-piperidin-1-ylethyl]cyclohexanol hydrochloride]: 17%; `OC1(C(CNCc2ccc(C(F)(F)F)cc2)c2cccc(Br)c2)CCCCC1` (stereo not drawn) [Example 90, 1-(1-(3-bromophenyl)-2-{[4-(trifluoromethyl)benzyl]amino}ethyl)cyclohexanol hydrochloride]: 15%.

Another experiment addresses T1, human hNET. The description is as above. The following applies: 30 μM test compound (stated in cell), [3H]NE uptake. The experiment is classed as cell-based.
In the case of `OC1(C(CN2CCOCC2)c2cccc(Br)c2)CCC1` (stereo not drawn) [Example 95, 1-[1-(3-bromophenyl)-2-morpholin-4-ylethyl]cyclobutanol hydrochloride], the inhibition at 30 µM amounted to 67%. On the same count and under the same terms, next, `OC1(C(CNCc2ccc(F)cc2)c2cccc(Br)c2)CCCCC1` (stereo not drawn) [Example 98, 1-{1-(3-bromophenyl)-2-[(4-fluorobenzyl)amino]ethyl}cyclohexanol hydrochloride]: 69%; `OC1(C(CN2CCOCC2)c2cccc(Br)c2)CCCCC1` (stereo not drawn) [Example 99, 1-[1-(3-bromophenyl)-2-morpholin-4-ylethyl]cyclohexanol hydrochloride]: 55%.

The compound `OC1(C(CNCc2ccc(C(F)(F)F)cc2)c2cccc(Cl)c2)CCCCC1` (stereo not drawn) [Example 105, 1-(1-(3-chlorophenyl)-2-{[4-(trifluoromethyl)benzyl]amino}ethyl)cyclohexanol hydrochloride] showed an inhibition at 30 µM of 99%. Still for that read-out and setting: the figure for `OC1(C(CN2CCOCC2)c2ccc(Cl)c(Cl)c2)CCCCC1` (stereo not drawn) [Example 112, 1-[1-(3,4-dichlorophenyl)-2-morpholin-4-ylethyl]cyclohexanol hydrochloride] is 80%; for `OC1(C(CNCc2ccc(F)cc2)c2ccc3ccccc3c2)CCCCC1` (stereo not drawn) [Example 113, 1-[2-[(4-fluorobenzyl)amino]-1-(2-naphthyl)ethyl]cyclohexanol hydrochloride] it is 55%. Same read-out and setting: the figure for `CN1CCC(O)(C(CN2CCOCC2)c2ccc(Cl)c(Cl)c2)CC1` (stereo not drawn) [Example 114, 4-[1-(3,4-dichlorophenyl)-2-morpholin-4-ylethyl]-1-methylpiperidin-4-ol dihydrochloride] is 52%.

Consider `CN1CCC(O)(C(CN2CCOCC2)c2cccc(Br)c2)CC1` (stereo not drawn) [Example 116, 4-[1-(3-bromophenyl)-2-morpholin-4-ylethyl]-1-methylpiperidin-4-ol dihydrochloride], for which at 30 µM the inhibition was 6%.

The record behind these values is patent publication US7402698B2, “Secondary amino-and cycloamino-cycloalkanol derivatives and methods of their use” (Wyeth, priority 2003, dated 2008).
